Results from US20130273557A1 (priority 2010, published 2013).

How the values were obtained:
[1] = tested on: leak conductance of urea-treated SMVs; test: Patch clamp recordings of urea-treated SMVs (F1 removed); format: biochemical, rat
Procedure: F1 subunits were removed from SMVs by adapting previously-established methods. 60 mg SMV's/1 mL IB was treated with 1 mL of […] for 5 min. on ice, then centrifuged at 21000×g for 10 min. The pellet was washed 3× in IB (centrifugation at 21000×g for 10 min) and stored in IB.
Giga-ohm seals were formed on SMVs using pipettes and solutions as above. Peak membrane conductance was measured as described above.

complex V (F1FO ATPase) = complex V (F1FO ATPase) (Rattus norvegicus, UniProt P19511+Q06647); test: ATP hydrolysis in SMVs, luciferin-luciferase assay; format: biochemical; set-up: from tissue; host or cells: rat brain mitochondria, lubrol-insoluble submitochondrial vesicles (SMVs); conditions: in these assays (NADH and luciferase)
From the text: 3 wells were used for each condition, repeated at least 3× on different SMV isolations.

[2] = tested on: models of cell death and NDDs; conditions: non-dopaminergic mechanism; cited from earlier work
[3] = tested on: calcium (Ca2+)-induced membrane currents in rat liver mitoplasts; conditions: cited from earlier work
[4] = target: T1, intermediate- and large-conductance channel activity of PSI-mitochondria (Rattus norvegicus, UniProt P19511+Q06647); test: Patch clamp recording of brain-derived PSI-mitochondria; format: biochemical; conditions: subcortex mitochondria vs control animals
T1 sequence (P19511 43-256): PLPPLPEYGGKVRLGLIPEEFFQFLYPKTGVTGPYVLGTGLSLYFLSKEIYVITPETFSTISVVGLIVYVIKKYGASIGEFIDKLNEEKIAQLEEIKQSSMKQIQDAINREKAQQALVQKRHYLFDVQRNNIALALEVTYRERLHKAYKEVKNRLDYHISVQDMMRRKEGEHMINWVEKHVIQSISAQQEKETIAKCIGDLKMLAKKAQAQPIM
T1 sequence (Q06647 24-213): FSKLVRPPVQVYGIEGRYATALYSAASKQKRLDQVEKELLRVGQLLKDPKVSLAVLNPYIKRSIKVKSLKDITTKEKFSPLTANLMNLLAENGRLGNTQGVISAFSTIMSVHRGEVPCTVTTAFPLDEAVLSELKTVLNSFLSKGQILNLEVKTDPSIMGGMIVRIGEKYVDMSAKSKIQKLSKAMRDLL
Procedure: Isolation of Brain-derived Mitochondria. Standard techniques were adapted for isolating brain-derived mitochondria. Mitochondria were stored in isolation buffer (IB) at −80° C. For PSI-mitochondria, male Sprague-Dawley rats (6 wo, ˜200 gm, 3-6 rats/group/condition, at least 2 different preparations/experimental paradigm) were injected with the ubiquitin proteasome inhibitor Z-Ile-Glu(OtBu)-Ala-Leu-al (PSI; Peptides International Inc, Kentucky, USA; s.c. every other day for 1 or 2 weeks; 6.0 mg/kg PSI in DMSO, or with DMSO, 200 μL/rat), and mitochondria isolated and stored as above.
Reagents were rapidly perfused into the recording chamber.

C2C12 myoblasts = test: OCR and ECAR in C2C12 myoblasts (Seahorse); format: cell-based, mouse; conditions: dexpramipexole 30 μM or PSI 30 nM alone, 18 hr
Procedure: (§1) The C2C12 mouse myoblast cell line (ATCC, Manasses, Va.) was cultured in Dulbecco's Modified Eagle Medium (DMEM; Gibco®; Carlsbad, Calif.) supplemented with 10% fetal bovine serum (FBS), 2 mM GlutaMax® and penicillin/streptomycin. Cells were maintained in 10% CO2 humidified at 37° C.
OCR and ECAR were measured with a Seahorse® XF24 Flux Analyzer (Seahorse Bioscience, Billerica, Mass.). For PSI experiments on C2C12 cells, basal values were assessed in non-buffered DMEM Assay Medium without glucose, glutamine or pyruvate, and supplemented with 25 mM glucose, 6 mM Glutamax®, and 1 mM sodium pyruvate. […] Succinate and ADP stocks were diluted to 10× concentrations in pre-warmed XF MAS buffer, pH 7.2. Using a Plate Prep Station (Seahorse Bioscience, Billerica, Mass.), cells were washed with 1 mL buffer and were brought to 607 μL with buffer. […] Raw basal OCR and ECAR values were normalized as a percent of the mean control value for each individual experiment. Normalized data from experiments were expressed as mean±SEM.

C2C12 cells [5] = format: cell-based, mouse
Procedure: (§2) Data are presented as a percentage of the vehicle-treated control ±SEM (n=10 wells at each concentration). […] Experiments commenced 18 hr. after addition of drug. […] Data are presented as a percentage of the vehicle-treated control±SEM (n=14-17 wells for each group).
as §1
(§3) Cellular viability was measured using CellTiter-Blue® (Promega Corp., Madison, Wis.) in black-walled optical imaging multiwell plates, and cellular ATP was measured using the CellTiter-Glo® (Promega Corp., Madison, Wis.) luminescence assay in opaque-walled multiwell plates according to the manufacturer's protocol.

C2C12 cells [6] = tested on: C2C12 cells
Procedure: as §2, §1, §3

[7] = tested on: SH-SY5Y neuroblastoma cells; test: PSI-induced cell death in SH-SY5Y cells (CellTiter-Blue); conditions: 24 hr exposure to PSI at 150 or 650 nM
Procedure: Data shown represent mean±SEM. […] Bar graphs represent normalized mean±SEM. Cell viability was measured by CellTiter-Blue®; n=41-98 wells/condition.
Undifferentiated SH-SY5Y human neuroblastoma cells (ATCC, Manasses, Va.) were maintained in humidified 5% CO2 in 1:1 Ham's F12 nutrient mixture with Glutamax® and Minimal Essential Medium with L-glutamine (MEM-Alpha), 10% FBS, and 1% penicillin/streptomycin (Gibco® Invitrogen Corp., Carlsbad, Calif.).
as §3

[8] = tested on: digitonin-treated cortical neurons; test: ATP production following ADP pulse in digitonin-treated cortical neurons; format: cell-based, rat; conditions: dexpramipexole 30 μM

Molecule: Nc1ncnc2c1ncn2[C@@H]1O[C@H](COP(=O)(O)OP(=O)(O)OP(=O)(O)O)[C@@H](O)[C@H]1O [ATP, adenosine triphosphate, reference compound]
- leak conductance after removal of F1 [1]: still very effectively decreased the leak conductance

Molecule: CC[C@H]1/C=C/C=C/C[C@@H](C)[C@H](O)[C@@](C)(O)C(=O)[C@@H](C)[C@H](O)[C@@H](C)C(=O)[C@@H](C)[C@H](O)[C@@H](C)/C=C/C(=O)O[C@@H]2[C@H](C)[C@H](CC1)O[C@]1(CC[C@H](C)[C@H](C[C@@H](C)O)O1)[C@H]2C [oligomycin, reference compound]
- ATP hydrolysis (complex V (F1FO ATPase)): effectively inhibited ATP hydrolysis

Molecule: CCCN[C@H]1CCc2nc(N)sc2C1 [pramipexole, (6S)-4,5,6,7-tetrahydro-N6-propyl-2,6-benzothiazole-diamine, reference compound]
- protective concentrations [2]: ≥ 10 µM
- Ca2+-induced membrane currents [3]: inhibit

Molecule: Z-Ile-Glu(OtBu)-Ala-Leu-H [PSI, reference compound]
- intermediate- and large-conductance mitochondrial ion channel activity after repeated pre-treatment of rats [4]: significant increase
- ECAR (C2C12 myoblasts): very significant increase in ECAR
- OCR (C2C12 myoblasts): did not display a significant change in OCR
- ATP levels (C2C12 cells [5]): neither ATP levels nor cell viability (FIG. 5b) were significantly affected
- concentrations reducing cellular viability (C2C12 cells [6]; 18 hr exposure): > 60 nM
- cell viability (C2C12 cells [6]; dexpramipexole 30 μM or PSI 30 nM, 18 hr, relative to control): neither ATP levels nor cell viability (FIG. 5b) were significantly affected
- cell viability [7]: significant decreases in cell viability

Molecule: antimycin A [reference compound]
- initial slope of ATP synthesis following an ADP pulse [8]: significantly reduced
- maximal ATP levels [8]: significantly reduced
